Calls of active or inactive are those of the source. The calls are words filed in the database; no cut-off is given here.
Assays:
Format in all cases: cell-based
[1] = target: T1, Potassium channel subfamily K member 2 (Homo sapiens) (UniProt O95069); test: Activation of K2P2.1 (unknown origin) expressed in whole HEK293T cells assessed as effect on channel currents by measuring time of return to baseline following compound washout at 20 uM by two-electrode voltage clamp assay relative to control
T1 sequence (whole entry): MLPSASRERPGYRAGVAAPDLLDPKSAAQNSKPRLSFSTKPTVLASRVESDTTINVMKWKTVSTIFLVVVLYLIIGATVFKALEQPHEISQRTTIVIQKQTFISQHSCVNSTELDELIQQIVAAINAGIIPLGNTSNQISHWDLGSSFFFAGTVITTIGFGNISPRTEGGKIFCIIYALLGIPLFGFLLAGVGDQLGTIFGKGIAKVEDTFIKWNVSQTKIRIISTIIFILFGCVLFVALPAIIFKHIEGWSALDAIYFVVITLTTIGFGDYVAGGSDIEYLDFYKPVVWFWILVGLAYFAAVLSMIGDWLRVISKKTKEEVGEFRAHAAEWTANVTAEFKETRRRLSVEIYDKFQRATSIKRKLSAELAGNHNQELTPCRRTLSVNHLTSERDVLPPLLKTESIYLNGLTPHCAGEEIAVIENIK

[2] = target: Potassium channel subfamily K member 3 (Homo sapiens) (UniProt O14649); test: Activation of K2P3.1 (unknown origin) expressed in Xenopus oocytes assessed as effect on channel currents at -80 mV holding potential at 100 uM by two-electrode voltage clamp assay relative to control
Sequence of Potassium channel subfamily K member 3 (Homo sapiens) (O14649 whole entry, looked up): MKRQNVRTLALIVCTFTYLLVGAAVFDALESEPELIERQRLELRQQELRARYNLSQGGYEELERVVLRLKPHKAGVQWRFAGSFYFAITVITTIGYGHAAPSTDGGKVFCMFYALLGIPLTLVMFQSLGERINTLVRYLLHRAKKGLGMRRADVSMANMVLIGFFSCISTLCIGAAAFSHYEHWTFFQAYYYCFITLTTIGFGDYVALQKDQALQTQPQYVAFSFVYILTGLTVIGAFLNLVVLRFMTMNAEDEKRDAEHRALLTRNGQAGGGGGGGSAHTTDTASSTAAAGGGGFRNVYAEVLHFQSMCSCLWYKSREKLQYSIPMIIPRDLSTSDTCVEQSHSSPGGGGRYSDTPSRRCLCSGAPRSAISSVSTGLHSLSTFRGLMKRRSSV

Homo sapiens = species: Homo sapiens; test: Activation of K2P2.1 3G mutant (unknown origin) expressed in Xenopus oocytes assessed as effect on channel currents at -80 mV holding potential by two-electrode voltage clamp assay relative to control
[3] = target: T1, Potassium channel subfamily K member 2 (Homo sapiens); test: Activation of K2P2.1 (unknown origin) expressed in HEK293T cell membranes in inside-out patch configuration assessed as effect on channel currents by measuring time of half-maximal activation at 20 uM by two-electrode voltage clamp assay relative to control
[4] = target: T2, Potassium channel subfamily K member 10 (Homo sapiens) (UniProt P57789); test: Activation of K2P10.1 (unknown origin) expressed in Xenopus oocytes assessed as effect on channel currents at -80 mV holding potential at 100 uM by two-electrode voltage clamp assay relative to control
T2 sequence (whole entry): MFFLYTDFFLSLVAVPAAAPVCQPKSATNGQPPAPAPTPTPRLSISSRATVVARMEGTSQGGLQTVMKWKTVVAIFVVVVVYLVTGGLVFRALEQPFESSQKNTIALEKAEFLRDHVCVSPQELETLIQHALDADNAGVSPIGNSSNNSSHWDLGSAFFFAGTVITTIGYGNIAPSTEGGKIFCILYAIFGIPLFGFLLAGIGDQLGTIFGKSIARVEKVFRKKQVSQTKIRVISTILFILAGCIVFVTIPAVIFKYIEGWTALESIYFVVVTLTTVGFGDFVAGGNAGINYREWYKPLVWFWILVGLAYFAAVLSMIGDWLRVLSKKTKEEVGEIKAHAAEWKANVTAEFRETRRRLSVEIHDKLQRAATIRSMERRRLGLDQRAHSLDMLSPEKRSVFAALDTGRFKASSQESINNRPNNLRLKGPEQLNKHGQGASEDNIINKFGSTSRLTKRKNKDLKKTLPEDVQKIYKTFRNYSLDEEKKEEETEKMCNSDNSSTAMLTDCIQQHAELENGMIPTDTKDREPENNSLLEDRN

[5] = target: Potassium channel subfamily K member 9 (Homo sapiens) (UniProt Q9NPC2); test: Activation of K2P9.1 (unknown origin) expressed in Xenopus oocytes assessed as effect on channel currents at -80 mV holding potential at 100 uM by two-electrode voltage clamp assay relative to control
Sequence of Potassium channel subfamily K member 9 (Homo sapiens) (Q9NPC2 whole entry): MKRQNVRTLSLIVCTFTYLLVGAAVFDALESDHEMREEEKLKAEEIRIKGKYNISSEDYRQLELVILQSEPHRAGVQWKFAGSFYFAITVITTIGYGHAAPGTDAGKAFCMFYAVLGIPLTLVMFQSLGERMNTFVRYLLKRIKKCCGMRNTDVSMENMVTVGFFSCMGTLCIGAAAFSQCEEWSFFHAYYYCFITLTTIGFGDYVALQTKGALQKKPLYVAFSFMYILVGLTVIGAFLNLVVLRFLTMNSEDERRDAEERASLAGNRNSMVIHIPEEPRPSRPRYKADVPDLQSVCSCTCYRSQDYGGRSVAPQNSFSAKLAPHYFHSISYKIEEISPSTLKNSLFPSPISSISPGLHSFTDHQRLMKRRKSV

[6] = target: Potassium channel subfamily K member 3 (Homo sapiens) (UniProt O14649); test: Activation of K2P3.1 (unknown origin) expressed in Xenopus oocytes assessed as effect on channel currents at -80 mV holding potential by two-electrode voltage clamp assay relative to control
[7] = target: T1, Potassium channel subfamily K member 2 (Homo sapiens); test: Activation of K2P2.1 (unknown origin) expressed in HEK293T cell membranes in outside-out patch configuration assessed as effect on channel currents at 20 uM by two-electrode voltage clamp assay relative to control
[8] = target: Potassium voltage-gated channel subfamily KQT member 2 (Homo sapiens) (UniProt O43526); test: Activation of Kv7.2 (unknown origin) expressed in Xenopus oocytes assessed as effect on channel currents at 100 uM at -80 mV holding potential by two-electrode voltage clamp assay relative to control
Sequence of Potassium voltage-gated channel subfamily KQT member 2 (Homo sapiens) (O43526 whole entry): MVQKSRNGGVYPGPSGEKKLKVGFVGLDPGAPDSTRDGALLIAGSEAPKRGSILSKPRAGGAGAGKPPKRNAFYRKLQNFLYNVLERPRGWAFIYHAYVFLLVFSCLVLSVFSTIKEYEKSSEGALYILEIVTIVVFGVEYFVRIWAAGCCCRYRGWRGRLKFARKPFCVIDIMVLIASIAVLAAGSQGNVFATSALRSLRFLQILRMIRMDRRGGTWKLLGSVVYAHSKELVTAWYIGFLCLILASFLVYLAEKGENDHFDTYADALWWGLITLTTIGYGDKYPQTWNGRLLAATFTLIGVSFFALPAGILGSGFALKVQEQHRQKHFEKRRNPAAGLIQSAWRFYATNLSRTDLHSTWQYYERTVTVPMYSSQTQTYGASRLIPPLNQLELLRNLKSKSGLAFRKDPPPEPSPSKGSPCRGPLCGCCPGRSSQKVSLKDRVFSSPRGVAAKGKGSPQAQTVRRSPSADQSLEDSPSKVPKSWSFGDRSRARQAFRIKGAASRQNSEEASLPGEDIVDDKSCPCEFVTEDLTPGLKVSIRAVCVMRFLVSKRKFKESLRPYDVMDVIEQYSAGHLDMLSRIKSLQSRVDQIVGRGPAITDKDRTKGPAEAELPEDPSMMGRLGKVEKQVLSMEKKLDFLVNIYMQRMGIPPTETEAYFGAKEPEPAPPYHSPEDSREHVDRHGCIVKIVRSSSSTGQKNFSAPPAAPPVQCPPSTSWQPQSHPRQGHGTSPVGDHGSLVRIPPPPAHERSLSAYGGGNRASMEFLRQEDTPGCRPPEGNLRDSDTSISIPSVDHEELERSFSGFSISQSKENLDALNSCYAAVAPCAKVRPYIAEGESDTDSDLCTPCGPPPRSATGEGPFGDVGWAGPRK

[9] = system: Potassium channel subfamily K member 2 (Homo sapiens), O95069 [UNDEFINED MUTATION]; test: Activation of K2P2.1 G137I mutant (unknown origin) expressed in Xenopus oocytes assessed as effect on channel currents at 150 uM at -80 mV holding potential by two-electrode voltage clamp assay relative to control
[10] = system: Potassium channel subfamily K member 2 (Homo sapiens), O95069 [UNDEFINED MUTATION]; test: Activation of K2P2.1 W275S mutant (unknown origin) expressed in Xenopus oocytes assessed as effect on channel currents at -80 mV holding potential by two-electrode voltage clamp assay relative to control
[11] = target: Potassium channel subfamily K member 9 (Homo sapiens) (UniProt Q9NPC2); test: Activation of K2P9.1 (unknown origin) expressed in Xenopus oocytes assessed as effect on channel currents at 150 uM at -80 mV holding potential by two-electrode voltage clamp assay relative to control
[12] = target: T3, Potassium channel subfamily K member 4 (Homo sapiens) (UniProt Q9NYG8); test: Activation of K2P4.1 (unknown origin) expressed in Xenopus oocytes assessed as effect on channel currents at -80 mV holding potential by two-electrode voltage clamp assay relative to control
T3 sequence (whole entry): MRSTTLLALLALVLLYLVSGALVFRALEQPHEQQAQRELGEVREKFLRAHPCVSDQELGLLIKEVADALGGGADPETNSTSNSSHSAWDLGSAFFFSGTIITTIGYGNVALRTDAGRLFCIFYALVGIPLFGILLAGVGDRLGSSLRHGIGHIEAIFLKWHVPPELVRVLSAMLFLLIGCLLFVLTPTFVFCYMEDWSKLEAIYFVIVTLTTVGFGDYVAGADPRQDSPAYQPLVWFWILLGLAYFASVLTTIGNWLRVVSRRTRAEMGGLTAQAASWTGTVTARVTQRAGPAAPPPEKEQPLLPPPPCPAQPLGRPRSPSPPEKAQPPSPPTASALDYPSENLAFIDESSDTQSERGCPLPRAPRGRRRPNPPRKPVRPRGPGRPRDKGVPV

## CC1(C)c2cc(Cl)ccc2N(CCc2nnn[nH]2)c2ccc(Cl)cc21
[1]
  T1/2: 3.9 s
[2]
  Emax: 1.1%
Homo sapiens
  Emax: 12.9
[3]
  T1/2: 10.8 s
[4]
  Emax: 11.4%
[5]
  Emax: 2%
[6]
  Emax: 1.1
[7]
  Activity: Active
[8]
  Activity: inactive
[9]
  Emax: 0.9
[10]
  Emax: 5.1
[11]
  Emax: 2.1
[12]
  Emax: 14.7

Source: ChEMBL document CHEMBL4421719, “Modulation of k2p channels” (2016)
